Experimental data published in patent US20050137172A1, “Haloacetamide and azide substituted compounds and methods of use thereof” (priority 2003, published 2005).
Like-named read-outs stand apart in the source and are kept apart here.

Experiments:
[1] = system: TSU; assay: Cell growth inhibition (sulforhodamine B assay); assay type: cell-based; settings: Homo sapiens, 96 h, read-out: IC50 TSU
Experimental: (§1) Prostate cancer cell lines were obtained from ATCC. All cells were grown in RPMI-1640 medium containing 2 mM L-glutamine supplemented with 10% fetal bovine serum (FBS) and maintained in a 5% CO2/95% air humidified atmosphere at 37° C.
(§2) Cells were plated on 96-well plates and incubated with drug-containing culture medium (200 μL/well) for 4 (DU 145, PC-3, PPC-1, and TSU) or 6 (LNCaP) days. Medium was replaced with freshly prepared batches every other day during the incubation. At the end of drug treatment, an aliquot of 50 μL of cold (4° C.) trichloroacetic acid (TCA, 50%) was gently layered on the top of growth medium in each well to make a final TCA concentration of 10%. The mixtures were incubated at 4° C. for 1 hour, and then washed 5 times with tap water to remove TCA, growth medium, low-molecular-weight metabolites, and serum proteins. The plates were air dried overnight. Next, fixed cells were stained with 50 μL of SRB solution (0.4%, wt/vol) for 10 minutes. After staining, SRB solution was decanted, and plates were quickly rinsed 5 times with 1% acetic acid to remove unbound dye and air dried overnight. The cellular protein-bound SRB was then dissolved with 200 μL unbuffered Tris base (10 mM, pH 10.5) for 30 minutes on a rocking platform shaker, and absorbance at 540 nm was measured by a plate reader.
(§3) Percentage of cell survival was calculated by absorbance at 540 nm in testing wells divided by absorbance in negative control wells (medium without the test compound). Percentages of cell survival versus drug concentrations were plotted and the concentration of drug that inhibited cell growth by 50% (IC50) was determined by nonlinear regression using WinNonlin (Pharsight Corporation, Mountain View, Calif.).
(§4) METHODS: LNCaP, DU145, PC-3, TSU, and PPC-1 cells were cultured in 96-well plates and treated with increasing concentrations of the compound of interest for 4 days. Cell survival was determined by the sulforhodamine B assay and was plotted as a percentage of control (drug-free wells) versus drug concentration. The concentration of drug that inhibited cell growth by 50% (IC50) was determined by nonlinear regression. Known anticancer drugs were used as cytotoxic positive controls.

[2] = system: PC-3; assay: Cell growth inhibition (sulforhodamine B assay); assay type: cell-based; settings: Homo sapiens, PC-3, 96 h, read-out: IC50 PC-3
Experimental: as §1, §2, §3, §4

[3] = system: PPC-1; assay: Cell growth inhibition (sulforhodamine B assay); assay type: cell-based; settings: Homo sapiens, PPC-1, 96 h, read-out: IC50 PPC-1
Experimental: as §1, §2, §3, §4

[4] = system: DU145; assay: Cell growth inhibition (sulforhodamine B assay); assay type: cell-based; settings: Homo sapiens, DU-145, 96 h, read-out: IC50 DU145
Experimental: as §1, §2, §3, §4

[5] = system: LNCaP; assay: Cell growth inhibition (sulforhodamine B assay); assay type: cell-based; settings: Homo sapiens, read-out: IC50 LNCaP
Experimental: as §1, §2, §3, §4

[6] = system: LNCaP cells; assay: Growth curve (trypan blue cell count, 120 h); assay type: cell-based, human
Experimental: (§5) MATERIALS: DMSO is the vehicle control and the solvent for Compound A and Compound B.
(§6) METHODS: Cells were plated at 5-10×10^4 cells/well in five 6-well plates and incubated at 37° C., 5% CO2 for 24 h to allow the cells sufficient time to attach and be in log phase growth at the start of the experiment. The media was aspirated from four of the plates and replaced with media containing vehicle control (DMSO) or drug dissolved in DMSO. The total volume of DMSO/drug added to each well was equal to 0.1% of the media volume in each well. LNCaP, PC-3, MCF-7, and CV-1 cells were treated with vehicle control, and increasing concentrations of Compound A and Compound B (0.01, 0.05, 0.1, 0.5, 1.0, 5.0, and 10.0 μM). Three wells were treated with the same concentration of the drugs or DMSO for each treatment condition listed above. The cells from the remaining 6-well plate were collected and counted to determine plating efficiency. The 6-well plates containing DMSO/drug were incubated for 120 h at 37° C., 5% CO2. After 120 h, the media from each well was collected along with trypsinized cells and centrifuged at 150×g for 4 min. The cells were resuspended in 1 mL of media, from which 90 μl was taken and combined with 10 μl trypan blue for counting on a hemacytometer.

[7] = system: LNCaP cells; assay: TUNEL assay (apoptosis, DNA fragmentation); assay type: cell-based, human; settings: LNCaP cells exposed for 24 hours, relative to 0.1% DMSO vehicle control
Experimental: MATERIALS: In Situ Cell Death Detection Kit, Fluorescein (Roche).
METHODS: DNA fragmentation of apoptotic cells was monitored by the TUNEL assay as described by the supplier. Briefly, LNCaP cells were plated at 2×10^5 cells/well in 2-well chamber slides and incubated at 37° C., 5% CO2 for 24 h to allow the cells sufficient time to attach and be in log phase growth at the start of the experiment. The media was aspirated and replaced with media containing vehicle control (DMSO) or drug dissolved in DMSO. The total volume of DMSO/drug added to each well was equal to 0.1% of the media volume in each well. LNCaP cells were treated with vehicle control, and increasing concentrations of Compound A and Compound B ([…]) for 24-48 h. Two wells were treated with the same concentration of the drugs or DMSO for each treatment condition listed above. The media was collected along with the trypsinized cells and centrifuged at 150 ×g for 4 min. The cells were resuspended in 50 μl PBS, pipetted onto poly-lysine coated slides, and then fixed in 4% methanol-free formaldehyde in PBS (H 7.4) for 25 min at 4° C. Cells were permeabilized in 0.2% Triton X-100 in PBS for 5 min at room temperature. […] Green and red fluorescence emissions were observed microscopically using 520 nm and >620 nm filters, respectively.

[8] = system: five prostate cancer cell lines; assay: Cell growth inhibition (sulforhodamine B assay), all five lines together; assay type: cell-based, human; settings: for IC50 values in inhibiting the growth of all of five prostate cancer cell lines: DU 145, PC-3, TSU, PPC-1, LNCaP; for IC50s from one-day treatment versus 4 or 6 days treatment: comparison of treatment durations
Experimental: as §1, §2, §3, §4

[9] = system: MCF-7 cells; assay: Growth curve (trypan blue cell count, 120 h); assay type: cell-based; settings: FIG. 2B
Experimental: as §5, §6

[10] = sulforhodamine B assay, 4 days treatment
[11] = sulforhodamine B assay, 4 or 6 days treatment

Row | Compound | melting point | IC50 [1, 10] | IC50 [2, 10] | IC50 [3, 10] | IC50 [4, 10] | IC50 [5, 11] | further results
1 | C[C@](O)(COc1ccc(NC(=O)C(F)(F)F)cc1)C(=O)Nc1ccc([N+](=O)[O-])c(C(F)(F)F)c1 | 58 to 60 °C |  |  |  |  |  | 
2 | C[C@](O)(COc1ccc(NC(=O)CI)cc1)C(=O)Nc1ccc(C#N)c(C(F)(F)F)c1 (hydrate or solvate) | 78 to 80 °C |  |  |  |  |  | 
3 | C[C@](O)(COc1ccc(NC(=O)C(Cl)(Cl)Cl)cc1)C(=O)Nc1ccc([N+](=O)[O-])c(C(F)(F)F)c1 (hydrate or solvate) | 59 to 61 °C |  |  |  |  |  | 
4 | C[C@](O)(COc1ccc(N2C(=O)C=CC2=O)cc1)C(=O)Nc1ccc([N+](=O)[O-])c(C(F)(F)F)c1 (hydrate or solvate) | 82 to 84 °C |  |  |  |  |  | 
5 | O=c1[nH]cc(F)c(=O)[nH]1 [Compound 5-FU, fluorouracil, reference compound] |  | 2.9 ± 0.9 µM | 12.1 ± 0.9 µM | 5.5 ± 0.3 µM | 2.6 ± 0.9 µM | 0.9 ± 0.3 µM | 
6 | C[C@](O)(COc1ccc(NC(=O)CBr)cc1)C(=O)Nc1ccc([N+](=O)[O-])c(C(F)(F)F)c1 [Compound A] |  | 0.4 ± 0.3 µM | 2.41 ± 0.6 µM | 1.1 ± 0.1 µM | 1.3 ± 0.3 µM | 1.1 ± 0.2 µM | Growth inhibitory activity across cell lines (selectivity) ([6]; LNCaP versus PC-3, MCF-7 and CV-1 cells, FIG. 2A): non-selective growth inhibitory activity; Apoptosis (green fluorescence, fragmented DNA) in TUNEL assay [7]: exhibit green fluorescence; IC50 values in inhibiting the growth of all of five prostate cancer cell lines [8]: low micro-molar range; IC50s from one-day treatment versus 4 or 6 days treatment [8]: did not show significant difference
7 | C[C@](O)(COc1ccc(NC(=O)CCl)cc1)C(=O)Nc1ccc([N+](=O)[O-])c(C(F)(F)F)c1 [Compound B] |  | 1.4 ± 0.4 µM | 4.2 ± 0.2 µM | 1.8 ± 0.1 µM | 0.9 ± 0.1 µM | 4.4 ± 0.8 µM | Concentration at which MCF-7 cells are sensitive [9]: > 5 µM; Sensitivity of LNCaP cells relative to PC-3 or CV-1 cells ([6]; growth curve, FIG. 2B): approximately 10 fold; Apoptosis (green fluorescence, fragmented DNA) in TUNEL assay [7]: similar; IC50 values in inhibiting the growth of all of five prostate cancer cell lines [8]: low micro-molar range; IC50s from one-day treatment versus 4 or 6 days treatment [8]: did not show significant difference
8 | N[C@@H](Cc1ccc(N(CCCl)CCCl)cc1)C(=O)O [Melphalan, reference compound] |  |  |  |  |  |  | IC50 [1]: 4 ± 0.2 µM; IC50 [2]: 30.4 ± 3.1 µM; IC50 [3]: 16.2 ± 1.8 µM; IC50 [4]: 31 ± 4.8 µM; IC50 [5]: 10.3 ± 0.1 µM
